These results are taken from patent US6509153B1, “Genetic markers of toxicity preparation and uses” (Exonhit Therapeutics SA, priority 1999, dated 2003).

Where a name gives a salt, the structure may show the parent alone.

Series [1] in a line: cell viability test (MTT) used to calculate the IC80 concentration. The series is classed as cell-based. The following applies: human, HepG2 cells, read-out: Concentration (corresponds to an IC80, MTT); for IC80 at 4 h: exposure time 4 h. From the text: (§1) HepG2 cells are then individually treated with different compounds with different levels of toxicity.
For a further series, the system named is HepG2 cells. As to the kind of experiment: hybridization of probes from treated HepG2 cells on p53 apoptosis filter (toxicity index). It counts as cell-based. As to conditions: HepG2 cells treated at IC80 concentration, compared with aspirin.
Excerpt: as §1

`CC(C)(C)NCC(O)c1cc(O)cc(O)c1` (stereo not shown) [Terbutaline Sulfate]: the IC80 at 18 h in series [1] (exposure time 18 h) was 0.2 µg/mL.
Consider `Clc1cccc(Cl)c1N=C1NCCN1` [Clonidine], for which the IC80 at 18 h in series [1] (exposure time 18 h) was 150 µM.
With `CC(=O)Oc1ccccc1C(=O)O` [Aspirin], in series [1] (exposure time 18 h), the IC80 at 18 h was 2000 µM.
Consider `C[C@@H]1C[C@@H]([C@H](O)CC2CC(=O)NC(=O)C2)C(=O)[C@@H](C)C1` [Cycloheximide], for which, in series [1] (exposure time 18 h), the IC80 at 18 h was 5 µg/mL.
On to `CC(C)[C@@H]1NC(=O)[C@H](C)OC(=O)[C@@H](C(C)C)NC(=O)[C@@H](C(C)C)OC(=O)[C@H](C(C)C)NC(=O)[C@H](C)OC(=O)[C@@H](C(C)C)NC(=O)[C@@H](C(C)C)OC(=O)[C@H](C(C)C)NC(=O)[C@H](C)OC(=O)[C@@H](C(C)C)NC(=O)[C@@H](C(C)C)OC1=O` [Valinomycin], for which, in series [1] (exposure time 18 h), the IC80 at 18 h was 0.015 µM.
`CC(=O)Nc1ccc(O)cc1` [Paracetamol]: the IC80 at 18 h in series [1] (exposure time 18 h) is 1000 µM.
The same measure, in the same setting: as for `CN(Cc1cnc2nc(N)nc(N)c2n1)c1ccc(C(=O)N[C@@H](CCC(=O)O)C(=O)O)cc1` [Methotrexate], the figure is 0.5 µM; as for `COc1cc([C@@H]2c3cc4c(cc3[C@@H](O[C@@H]3O[C@@H]5CO[C@@H](C)O[C@H]5[C@H](O)[C@H]3O)[C@H]3COC(=O)[C@H]23)OCO4)cc(OC)c1O` [Etoposide], 50 µg/mL.
Regarding `O=C(O)Cc1ccccc1Nc1c(Cl)cccc1Cl` [Diclofenac], in series [1] (exposure time 18 h), the IC80 at 18 h is 50 µg/mL. In addition, the “splicing events identical to those induced by p53-related toxicity (toxicity index ranking)” value in the series on HepG2 cells is recorded as “generates more splicing events identical to those induced by p53 -related toxicity than aspirin”.
For `CNC[C@H](O)c1ccc(O)c(O)c1` [Epinephrine Hydrate], the IC80 at 18 h in series [1] (exposure time 18 h) is 50 µg/mL.
Regarding `CC[C@H]1OC(=O)[C@H](C)[C@@H](O[C@H]2C[C@@](C)(OC)[C@@H](O)[C@H](C)O2)[C@H](C)[C@@H](O[C@@H]2O[C@H](C)C[C@H](N(C)C)[C@H]2O)[C@](C)(O)C[C@@H](C)C(=O)[C@H](C)[C@@H](O)[C@]1(C)O` [Erythromycin], the IC80 at 18 h in series [1] (exposure time 18 h) was 2.5 µg/mL.
`CC[C@]1(O)C[C@@H]2CN(CCc3c([nH]c4ccccc34)[C@@](C(=O)OC)(c3cc4c(cc3OC)N(C)[C@H]3[C@@](O)(C(=O)OC)[C@H](OC(C)=O)[C@]5(CC)C=CCN6CC[C@]43[C@@H]65)C2)C1` [Vinblastine Sulfate]: in series [1] (exposure time 18 h), the IC80 at 18 h is 30 µM.
In the case of `CN[C@@H]1C[C@H]2O[C@@](C)([C@@H]1OC)n1c3ccccc3c3c4c(c5c6ccccc6n2c5c31)C(=O)NC4` [Staurosporine], the IC80 in series [1] (exposure time 18 h) is 0.05 µM.
On to `CCO` [Ethanol], for which the IC80 at 4 h in series [1] is 100000 µM.
Turning to `CC[C@@]1(O)C(=O)OCc2c1cc1n(c2=O)Cc2cc3ccccc3nc2-1` [Camptothecin], the IC80 at 4 h in series [1] is 1 µg/mL.
